Data: paper PMC11856108, “Capsaicin (But Not Other Vanillins) Enhances Estrogen Binding to Its Receptor: Implications for Power Sports and Cancers” (Life, 2025)
“Also recorded” adds a separate entry of the source. Where two headings read alike, the source gives them in different places.

How the values were obtained:
[1] = target: insulin receptor (IR) (Homo sapiens, UniProt P06213); test: Binding to the insulin receptor by ultraviolet spectroscopy; settings: UV spectroscopy
Method: UV spectroscopy in a crystal plate was used to investigate whether CAP has specificity for estrogen alone or whether it can bind to other naturally occurring hormones. To start, CAP was dissolved in a 1:1 solution of water to ethanol at 1 mg/mL ( 3.27×10^−3 M ) and then diluted by thirds eight times. Next, the hormones were dissolved in a 1:1 solution of water to ethanol at a 1/100 dilution. An amount of 50 μL of each CAP dilution was added to 3 wells of a crystal plate, with one well serving as the control, with another 50 μL of 1:1 water to ethanol added, and the other two serving as experimental duplicates, with 50 μL of the prepared hormone solution added. Then, two additional wells were prepared to serve as controls: one containing 100 μL of 1:1 water to ethanol and the other containing 50 μL of prepared hormone solution and 50 μL of 1:1 water to ethanol. Finally, the plate was incubated for 1 h and read in a Spectramax UV-VIS scanning spectrophotometer, spanning wavelengths from 190 to 400 nm. Data analysis involved the subtraction of observed absorbance values from expected absorbance values generated from the control wells ([CAP + 1:1 solution] + [hormone + 1:1 solution] − [1:1 solution]) and plotting them as a function of CAP concentration. Because the solvent (1:1 solution of water–ethanol) was used as a control and subtracted from all wells, the resulting data reflected only the absorbances of the solute compounds. Since each compound has a different lambda maximal absorbance, analysis of the resulting data required finding one common wavelength at which the additions and subtractions of the spectra could be carried out and at which the absorbance of each compound was maximized.
(§1) [17, 19, 20, 21, 22, 23]. […] Because CAP binds to INS, it was possible that it might antagonize INS binding to its receptor. […] Two types of ultraviolet spectroscopy experiments were performed. In one, INS (1 µM) and the IR were kept constant and the concentration of CAP increased from 0.1 µM to 100 µM. In the other, the CAP (25 µM) and IR were kept constant and the concentration of INS increased from 10 nM to 10 µM. In neither experiment was any significant change in the INS binding curve observed.
CAP did bind to the ESR1 with what appears to be a high affinity (Kd = 0.9 µM) and a lower affinity (Kd = 10 µM) site. […] Other vanilloid compounds also bound to the ESR1 but with lower affinity than CAP (Figure 6). None bound to the IR.

[2] = test system: Human nasopharyngeal carcinoma; design: method as in PMID 28644386; settings: cited from earlier work
[3] = test system: Human, Mice; design: method as in PMID 29772784; settings: Both ***; cited from earlier work
[4] = test system: Human HepG2 cells; design: method as in PMID 25621172; settings: cited from earlier work
[5] = test system: Human (NSCLC cells); design: method as in PMID 24926985; settings: cited from earlier work
[6] = target: insulin (human recombinant) (Homo sapiens, UniProt P01308); test: Binding to insulin by ultraviolet spectroscopy; settings: UV spectroscopy
insulin (human recombinant), sequence (P01308 25-54 limits assumed): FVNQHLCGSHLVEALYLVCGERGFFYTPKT
insulin (human recombinant), sequence (P01308 90-110 limits assumed): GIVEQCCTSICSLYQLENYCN

[7] = test system: Human (male); design: method as in PMID 8926537; settings: cited from earlier work
[8] = test system: Mice; design: method as in PMID 23536811; settings: cited from earlier work
[9] = test system: Human (male); design: method as in PMID 17615999; settings: cited from earlier work
[10] = test system: Mice; design: method as in PMID 38700794; settings: cited from earlier work
[11] = test system: Mice; design: method as in PMID 23958300; settings: cited from earlier work
[12] = test system: insulin receptor (IR); test: Effect on INS binding to its receptor by ultraviolet spectroscopy; settings: INS 1 µM with CAP 0.1-100 µM, or CAP 25 µM with INS 10 nM-10 µM
Method: as §1

[13] = test system: Human; design: method as in PMID 30668390; settings: cited from earlier work
[14] = test system: Human (prostate cancer cells); design: method as in PMID 19705615; settings: cited from earlier work
[15] = test system: Mice: TRPV1+ vs. TRPV1-; design: method as in PMID 32400193; settings: cited from earlier work
[16] = target: T1, Estrogen receptor alpha (ER alpha) recombinant protein (ESR1) (Homo sapiens, UniProt P03372); test: Binding to the estrogen receptor by ultraviolet spectroscopy
T1 sequence (P03372 1-595): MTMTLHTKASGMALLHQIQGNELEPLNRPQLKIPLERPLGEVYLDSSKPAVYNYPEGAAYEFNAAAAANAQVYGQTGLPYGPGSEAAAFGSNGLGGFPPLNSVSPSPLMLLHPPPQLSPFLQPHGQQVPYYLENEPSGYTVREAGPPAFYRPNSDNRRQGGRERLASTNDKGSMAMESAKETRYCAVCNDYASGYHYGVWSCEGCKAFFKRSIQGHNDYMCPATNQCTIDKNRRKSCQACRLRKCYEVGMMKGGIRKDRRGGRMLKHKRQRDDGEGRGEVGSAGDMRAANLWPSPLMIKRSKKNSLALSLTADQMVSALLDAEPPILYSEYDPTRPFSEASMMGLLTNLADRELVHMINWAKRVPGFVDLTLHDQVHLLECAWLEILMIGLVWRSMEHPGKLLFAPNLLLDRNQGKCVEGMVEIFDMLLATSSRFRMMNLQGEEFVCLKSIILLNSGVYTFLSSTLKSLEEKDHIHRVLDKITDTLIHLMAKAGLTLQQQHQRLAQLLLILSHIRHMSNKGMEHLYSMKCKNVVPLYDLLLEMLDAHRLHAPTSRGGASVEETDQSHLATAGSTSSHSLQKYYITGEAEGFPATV

insulin receptor (IR) (Homo sapiens, UniProt P06213), sequence (P06213 28-1382, species assumed): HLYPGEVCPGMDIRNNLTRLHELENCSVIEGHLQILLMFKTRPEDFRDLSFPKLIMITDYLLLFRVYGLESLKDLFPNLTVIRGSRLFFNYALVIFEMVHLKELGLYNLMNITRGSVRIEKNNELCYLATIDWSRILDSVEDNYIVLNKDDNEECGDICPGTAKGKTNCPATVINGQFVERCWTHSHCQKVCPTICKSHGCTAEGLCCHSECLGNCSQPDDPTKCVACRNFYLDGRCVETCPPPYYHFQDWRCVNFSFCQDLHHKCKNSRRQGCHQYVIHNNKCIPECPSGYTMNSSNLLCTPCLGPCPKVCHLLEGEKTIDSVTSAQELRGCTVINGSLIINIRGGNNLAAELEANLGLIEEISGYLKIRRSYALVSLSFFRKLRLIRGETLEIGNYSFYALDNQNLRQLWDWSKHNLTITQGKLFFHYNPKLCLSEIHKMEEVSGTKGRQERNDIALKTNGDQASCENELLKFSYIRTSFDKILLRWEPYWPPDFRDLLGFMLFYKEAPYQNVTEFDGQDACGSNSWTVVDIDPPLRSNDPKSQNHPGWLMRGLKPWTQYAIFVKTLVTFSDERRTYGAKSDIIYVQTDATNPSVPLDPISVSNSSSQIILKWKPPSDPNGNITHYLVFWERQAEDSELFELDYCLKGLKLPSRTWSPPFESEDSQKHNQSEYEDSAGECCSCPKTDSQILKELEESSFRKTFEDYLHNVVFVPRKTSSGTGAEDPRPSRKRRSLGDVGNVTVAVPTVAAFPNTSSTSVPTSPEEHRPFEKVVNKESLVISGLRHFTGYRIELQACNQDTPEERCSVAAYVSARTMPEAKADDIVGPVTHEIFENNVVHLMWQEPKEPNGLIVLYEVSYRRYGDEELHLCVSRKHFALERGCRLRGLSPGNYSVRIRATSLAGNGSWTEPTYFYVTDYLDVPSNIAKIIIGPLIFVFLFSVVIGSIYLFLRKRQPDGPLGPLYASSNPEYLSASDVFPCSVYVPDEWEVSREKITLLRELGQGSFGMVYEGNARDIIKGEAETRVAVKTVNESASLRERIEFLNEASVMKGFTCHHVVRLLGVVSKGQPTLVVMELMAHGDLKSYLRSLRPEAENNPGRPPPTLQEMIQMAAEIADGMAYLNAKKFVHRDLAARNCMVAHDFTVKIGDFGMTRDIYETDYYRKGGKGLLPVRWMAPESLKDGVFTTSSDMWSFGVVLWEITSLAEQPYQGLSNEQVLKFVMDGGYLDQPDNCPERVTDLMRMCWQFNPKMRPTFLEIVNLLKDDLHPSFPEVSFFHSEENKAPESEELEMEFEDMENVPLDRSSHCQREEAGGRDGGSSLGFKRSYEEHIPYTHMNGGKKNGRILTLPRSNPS

In the case of `COc1cc(CNC(=O)CCCC/C=C/C(C)C)ccc1O` [Capsaicin, trans-8-methyl-N-vanillyl-6-nonenamide], the “binding to the insulin receptor (in words)” value ([1]; listed as CAP) is given as “did not bind significantly to the IR except at concentrations well beyond those physiologically possible”, the “binding to the insulin receptor (in words)” value ([1]; listed as capsaicin) is given as “not the insulin receptor” and the “Cancer-Related Effects” value [2] is given as “>Regulation of autophagic pathways”. For the same compound, the Upregulates [2] was “>Increases levels of LC3-II and Atg5 >Enhances p62 and Fap-1 degradation”, the “Capsaicin Upregulates” value [3] was “>INS sensitivity—TRPV-1 activation stimulated GLP-1 release * >Fatty acid oxidation—modulated via TRPV1 activation >INS secretion from pancreatic β-cells ***” and the “Downregulates or Inhibits” value [3] was “> Inflammatory factors **”. The “Cancer-Related Effects” value [4] was “>Sensitizes human cancer cells to cytocidal effects of chemotherapeutic agents >Selectivity to kill cancer cells with minimal damage to normal cells”, the “Downregulates or Inhibits” value [4] was “>MDR-1 pathway → downregulates MDR-1 transcription (improves sensitivity)” and the “Cancer-Related Effects” value [5] was “>Inhibition of tumor angiogenesis and metastasis”. The “Downregulates or Inhibits” value [5] was “>VEGF expression”, the Upregulates [5] was “>Activates p53-SMAR1 positive feedback loop >Decreases endothelial cell migration and network reformation” and the Kd ([6]; Binding (Kd) Insulin, Table 1) was 4 µM. For the same compound, the “binding to insulin (in words)” value [6] was “bound to insulin”, the Kd ([6]; binding constant to INS) was roughly 4 µM and the “Capsaicin Upregulates” value [7] was “>Fat metabolism through neuroadrenergic effects of TRPV-1 activation”. For the same compound, the “Capsaicin Upregulates” value [8] was “>Ca^2+ ion release into the cell via TRPV-1 activation >Muscle actin–myosin interaction >Force generation >Intramuscular triglyceride consumption”, the “Capsaicin Upregulates” value [9] was “>Sympathetic modulation (adrenal catecholamine secretion) and thermogenesis” and the “Cancer-Related Effects” value [10] was “>Ameliorated changes to the histological structure, prostate weight and prostate index (prostate/body weight ratio)”. For the same compound, the “Downregulates or Inhibits” value [10] was “>TGF-β1/Smad signaling pathway → expression of E-cadherin, TGFBR2, TGF-β1 and p-Smad2/3 >IGF-1/AKT signaling pathway → expression of IGF-1, IGF-1R, p-AKT and RAGE >Androgen signaling pathway → expression of 5-αreductase type II, AR and PSA”, the Upregulates [10] was “>TGF-β1/Smad signaling pathway → expression of N-cadherin, vimentin, fibronectin >TRPV-1-mediated apoptosis” and the “Capsaicin Upregulates” value [11] was “>Glucose uptake via AMPK activation and increasing p38 MAPK phosphorylation >Stimulation of ROS generation”. For the same compound, the “effect on INS binding to its receptor” value [12] was “no observable effect”, the “effect on INS binding to its receptor” value ([12]; listed as CAP) was “does not, apparently, alter INS binding to its receptor; also recorded: did not significantly affect INS binding to its receptor” and the “Cancer-Related Effects” value [13] was “>Inhibits cell proliferation”. For the same compound, the “Downregulates or Inhibits” value [13] was “>Cell cycle arrest in G0/G1 and G2/M phase >Suppresses ROS production”, the Upregulates [13] was “>Increase in reduced glutathione and DPPH” and the “Cancer-Related Effects” value [14] was “>Induces apoptosis”. The Upregulates [14] was “>Cleavage of procaspase-3 to caspase-3 >Interaction with caspase-1 >TRPV1-mediated Ca+ influx”, the “Cancer-Related Effects” value [15] was “>Chemoprevention” and the “Downregulates or Inhibits” value [15] was “>Blocked metastatic burden >Mechanism unknown”. For the same compound, the Kd [16] was 0.9 µM, the “binding to the estrogen receptor (in words)” value ([16]; UV spectroscopy) was “bound to the estrogen receptor” and the “binding to the estrogen receptor (in words)” value ([16]; UV spectroscopy, listed as CAP) was “bind directly to the estrogen receptor”. For the same compound, the Kd ([16]; read-out: Kd, ESR1 lower affinity site, UV spectroscopy) was 10 µM.
